We go through ten compounds from BindingDB's records for doi:10.1021/jm0606185 (Uppsala University, 2006).

One may read the Ki as the equilibrium dissociation constant of an inhibitor or competing ligand from its target. A lower Ki goes with higher affinity.

This experiment has as its target Type-2 angiotensin II receptor (Sus scrofa). The experiment in a line: Displacement of [125I]Ang2 from AT2 receptor in pig uterus membrane. For orientation: In a radioligand displacement assay an active substance lowers the binding of a labelled ligand.
`CCCCS(=O)(=O)NC(=O)c1sc(CC(C)C)cc1-c1ccc(Cn2ccnc2)cc1` [N-butylsulfonyl-3-(4-imidazol-1-ylmethylphenyl)-5-iso-butylthiophene-2-carboxamide] registered a Ki of 79 nM. Under `CCCCc1ccc(S(=O)(=O)NC(=O)OCC)c(-c2ccc(Cn3ccnc3)cc2)c1` [N-ethyloxycarbonyl-2-(4-imidazol-1-ylmethylphenyl)-4-butylbenzenesulfonamide] stands 2 nM; under `CCCCN(C)C(=O)NS(=O)(=O)c1sc(CC(C)C)cc1-c1ccc(Cn2ccnc2)cc1` [N-(N-butyl-methylaminocarbonyl)-3-(4-imidazol-1-ylmethylphenyl)-5-isobutylthiophene-2-sulfonamide], 4 nM; under `CCCCOC(=O)NS(=O)(=O)c1ccc(OC(C)C)cc1-c1ccc(Cn2ccnc2)cc1` [N-butyloxycarbonyl-2-(4-imidazol-1-ylmethylphenyl)-4-iso-propoxybenzenesulfonamide], 15 nM. For `CCCCOC(=O)NS(=O)(=O)c1ccc(CCCC)cc1-c1ccc(Cn2ccnc2)cc1` [N-butyloxycarbonyl-2-(4-imidazol-1-ylmethylphenyl)-4-butylbenzenesulfonamide], the affinity, expressed as Ki, was 5 nM. The compound `CCCCOC(=O)NS(=O)(=O)c1sc(CCCC)cc1-c1ccc(Cn2ccnc2)cc1` [N-butyloxycarbonyl-3-(4-imidazol-1-ylmethylphenyl)-5-butylthiophene-2-sulfonamide] gave a Ki of 5 nM. In other words, the single-digit nanomolar range. The same measure for `CC(C)Cc1cc(-c2ccc(Cn3ccnc3)cc2)c(S(=O)(=O)NC(=O)OC(C)(C)C)s1` [N-tert-butyloxycarbonyl-3-(4-imidazol-1-ylmethylphenyl)-5-iso-butylthiophene-2-sulfonamide]: 63 nM. The same measure for `COCCOC(=O)NS(=O)(=O)c1sc(CC(C)C)cc1-c1ccc(Cn2ccnc2)cc1` [N-(methyloxy-ethyloxycarbonyl)-3-(4-imidazol-1-ylmethylphenyl)-5-iso-butylthiophene-2-sulfonamide]: 31 nM. The same measure for `CCCCS(=O)(=O)NS(=O)(=O)c1sc(CC(C)C)cc1-c1ccc(Cn2ccnc2)cc1` [N-butylsulfonyl-3-(4-imidazol-1-ylmethylphenyl)-5-iso-butylthiophene-2-sulfonamide]: 76 nM; for `CC(C)Cc1cc(-c2ccc(Cn3ccnc3)cc2)c(S(=O)(=O)NC(=O)OC(C)C)s1` [N-iso-propyloxycarbonyl-3-(4-imidazol-1-ylmethylphenyl)-5-iso-butylthiophene-2-sulfonamide]: 75 nM.
